One test concerns Botrytis cinerea. The test can be described thus: Activity against gray mold on bell pepper leaves caused by Botrytis cinerea, 1 day protective application (Botrci P1). It is filed as in vivo. The note with it: untreated 90%. Here is the method: (§1) The active compounds were prepared separately or jointly as a stock solution comprising 25 mg of active compound which was made up to 10 ml using a mixture of acetone and/or DMSO and the emulsifier Uniperol® EL (wetting agent having emulsifying and dispersing action based on ethoxylated alkylphenols) in a volume ratio of solvent/emulsifier of 99:1. The mixture was then made up to 100 ml with water. This stock solution was diluted with the solvent/emulsifier/water mixture described to give the concentration of active compounds stated below. Alternatively, the active compounds were used as a commercial finished formulation and diluted with water to the concentration of active compounds stated.
Activity Against Gray Mold on Bell Pepper Leaves Caused by Botrytis cinerea, 1 Day Protective Application (Botrci P1)
Bell pepper seedlings were, after 2-3 leaves were well developed, sprayed to runoff point with an aqueous suspension having the active compound concentration stated below. The next day, the treated plants were inoculated with a spore suspension of Botrytis cinerea in a 2% strength biomalt solution. The test plants were then placed in a dark climatized chamber at 22 to 24° C. and high atmospheric humidity. After 5 days, the extent of the fungal infection on the leaves could be determined visually in %.

A further test has as its system Puccinia recondita. The test can be described thus: Protective activity against Puccinia recondita on wheat (brown rust of wheat) (Puccrt P1). It is filed as in vivo.
For the next test, the system named is Leptosphaeria nodorum. The test can be described thus: Activity against the leaf and glume blotch pathogen Leptosphaeria nodorum in the microtiter test (Leptno). It is filed as cell-based.
A further test deals with Pyricularia oryzae. It is filed as cell-based.
Another test relates to Phakopsora pachyrhizi. The test can be described thus: Curative activity against soybean rust caused by Phakopsora pachyrhizi (Phakpa K1). The note with it: curative application, untreated 90%. It is filed as in vivo, Phakopsora pachyrhizi on soybean. Here is the method:
as §1
Curative Activity Against Soybean Rust Caused by Phakopsora pachyrhizi (Phakpa K1)
Leaves of potted soybean seedlings were inoculated with a spore suspension of soybean rust (Phakopsora pachyrhizi). The pots were then placed in a chamber with high atmospheric humidity (90 to 95%) and at 23 to 27° C. for 24 hours. During this time, the spores germinated and the germ tubes penetrated into the leaf tissue. The infected plants were then sprayed to runoff point with the active compound solution described above at the active compound concentration stated below. After the spray coating had dried on, the test plants were cultivated in a greenhouse at temperatures between 23 and 27° C. and 60 to 80% relative atmospheric humidity for 14 days. The extent of the rust fungus development on the leaves was then determined visually in % infection.

Another test has as its system Septoria tritici. The test can be described thus: Activity against the Septoria leaf spot pathogen Septoria tritici in the microtiter test (Septtr). It is filed as cell-based.
For another test, the system named is Alternaria solani. The test can be described thus: Activity against the early blight pathogen Alternaria solani in the microtiter test (Alteso). It is filed as cell-based. The note with it: day 7, relative to active compound-free control (100%).
Setting [1] is: 31 ppm, microtiter test, comparative experiments.
[2] abbreviates: 31 ppm, microtiter test, day 7, relative to active compound-free control (100%).

Like-named read-outs stand apart in the source and are kept apart here.

Consider `Fc1ccc([C@]2(Cn3cnc(S)n3)O[C@H]2c2ccccc2Cl)c(F)c1` (relative stereo) [Example 1, 1-[rel-(2R,3S)-3-(2-chlorophenyl)-2-(2,4-difluorophenyl)oxiranylmethyl]-1H-[1,2,4]triazole-3-thiol], for which, in the test with Botrytis cinerea, the “Infection in % at 600 ppm for Botrci P1” value came to 7%. Also, in the test with Puccinia recondita (600 ppm, protective spray 1 day before inoculation, wheat, untreated 90%), the “Infection in % at 600 ppm for Puccrt P1” value is 0%.
`Fc1ccc([C@@]2(Cn3nc[nH]c3=S)O[C@@H]2c2ccccc2Cl)cc1F` (relative stereo) [Example 3, 1-[rel-(2S,3R)-3-(2-chlorophenyl)-2-(3,4-difluorophenyl)oxiran-2-ylmethyl]-1H-1,2,4-triazole-5(4-H)-thione]: the “Growth in % at 31 ppm for Leptno” value in the test on Leptosphaeria nodorum was found to be 60%. Further, the “Infection in % at 600 ppm for Puccrt P1” value in the test on Puccinia recondita (in vivo) is on record as 0%.
For `Fc1ccc([C@@]2(Cn3nc[nH]c3=S)O[C@@H]2c2ccccc2F)c(F)c1` (relative stereo) [Example 4, 1-[rel-(2S,3R)-2-(2,4-difluorophenyl)-3-(2-fluorophenyl)oxiran-2-ylmethyl]-1H-1,2,4-triazole-5(4H)-thione], the “Growth in % at 31 ppm for Pyrior” value with Pyricularia oryzae (setting [1]) and in the test with Pyricularia oryzae (setting [2]) was 7% each time.
As for `Fc1ccc([C@@]2(Cn3nc[nH]c3=S)O[C@@H]2c2ccccc2C(F)(F)F)cc1F` (relative stereo) [Example 5, 1-[rel-(2S,3R)-2-(3,4-difluorophenyl)-3-(2-(trifluoromethyl)phenyl)oxiran-2-ylmethyl]-1H-1,2,4-triazole-5(4H)-thione], the “Infection in % at 300 ppm for Puccrt P1” value in the test with Puccinia recondita (300 ppm, protective spray 1 day before inoculation, wheat, untreated 90%) was 10%.
For `CSc1ncnn1C[C@]1(c2ccc(F)cc2F)O[C@@H]1c1ccccc1F` (relative stereo) [Example 8, 1-[rel-(2S,3R)-2-(2,4-difluorophenyl)-3-(2-fluorophenyl)oxiran-2-ylmethyl]-5-(methylthio)-1H-1,2,4-triazole], the “Infection in % at 600 ppm for Phakpa K1” value in the test with Phakopsora pachyrhizi is reported as 1%.
The same measure, in the same setting: the figure for `CSc1ncnn1C[C@]1(c2ccc(F)c(F)c2)O[C@@H]1c1ccccc1C(F)(F)F` (relative stereo) [Example 9, 1-[rel-(2S,3R)-2-(3,4-difluorophenyl)-3-(2-(trifluoromethyl)phenyl)oxiran-2-ylmethyl]-5-(methylthio)-1H-1,2,4-triazole] is 0%.
Still for that read-out and setting: the figure for `CSc1ncnn1C[C@]1(c2ccc(F)cc2F)O[C@@H]1c1ccccc1Cl` (relative stereo) [Example 10, 1-[rel-(2S,3R)-3-(2-chlorophenyl)-2-(2,4-difluorophenyl)oxiran-2-ylmethyl]-5-(methylthio)-1H-1,2,4-triazole] is 0%.
On to `N#CSc1ncnn1C[C@]1(c2ccc(F)cc2F)O[C@@H]1c1ccccc1Cl` (relative stereo) [Example 12, 1-[rel-(2S,3R)-3-(2-chlorophenyl)-2-(2,4-difluorophenyl)oxiran-2-ylmethyl]-5-thiocyanato-1H-1,2,4-triazole], for which the “Growth in % at 31 ppm for Septtr” value with Septoria tritici (setting [2]) is given as 1%. In the test on Alternaria solani, the “Growth in % at 31 ppm for Alteso” value was determined as 43%.
For `CCOP(=S)(OCC)Sc1ncnn1C[C@]1(c2ccc(F)cc2F)O[C@@H]1c1ccccc1Cl` (relative stereo) [Example 13, S-1-[rel-(2S,3R)-3-(2-chlorophenyl)-2-(2,4-difluorophenyl)oxiran-2-ylmethyl]-1H-1,2,4-triazol-5-yl O,O-diethyl phosphorodithioate], in the test on Septoria tritici, the “Growth in % at 31 ppm for Septtr” value stood at 4%.
Turning to `CC(=O)Sc1ncnn1C[C@]1(c2ccc(F)cc2F)O[C@@H]1c1ccccc1Cl` (relative stereo) [Example 14, S-{2-[3-(2-chlorophenyl)-2-(2,4-difluorophenyl)oxiranylmethyl]-2H-[1,2,4]triazole-3-yl} rel-(2S,3R)thio acetate], the “Infection in % at 600 ppm for Botrci P1” value in the test with Botrytis cinerea is on record as 3%. Also, the “Infection in % at 600 ppm for Puccrt P1” value in the test with Puccinia recondita (in vivo) amounted to 0%.
As to `Fc1ccc([C@@]2(Cn3ncnc3[S-])O[C@@H]2c2ccccc2Cl)c(F)c1.[Na+]` (relative stereo) [Example 16, sodium rel-(2S,3R)-2-[3-(2-chlorophenyl)-2-(2,4-difluorophenyl)oxiranylmethyl]-2H-[1,2,4]triazole-3-thiolate], in the test on Leptosphaeria nodorum (setting [2]), the “Growth in % at 31 ppm for Leptno” value is listed as 4%.
Turning to `Fc1ccc([C@@]2(Cn3nc[nH]c3=S)O[C@@H]2c2ccccc2Cl)cc1Br` [WO9638440, p. 7 (2nd compound)], in the test with Leptosphaeria nodorum (setting [1]), the “Growth in % at 31 ppm for Leptno” value worked out at 100%.
For the compound `Fc1ccc([C@@]2(Cn3ncnc3S)O[C@@H]2c2ccccc2F)cc1` [WO9638440, p. 9 (2nd compound)], the “Growth in % at 31 ppm for Pyrior” value in the test on Pyricularia oryzae (setting [1]) is 30%.
Still for that read-out and setting: the figure for `COC(=O)Sc1ncnn1CC1(c2ccc(F)cc2F)OC1c1ccccc1Cl` (centres unmarked) [WO9742178, p. 55 (4th compound)] is 94%.
“S-{2-[3-(2-chlorophenyl)-2-(2,4-difluorophenyl)oxiranylmethyl]-2H-[1,2,4]triazole-3-yl}rel-(2S,3R)thio carbonate [Example 15]”: the “Growth in % at 31 ppm for Pyrior” value in the test with Pyricularia oryzae is reported as 64%.

Source of the values: patent publication US20100317515A1, “Azolylmethyloxiranes, use Thereof and Agents Containing the Same” (priority 2007, published 2010).
